The results in this text go back to patent publication US9297017B2, “Methods and compositions for targeted protein degradation” (University of Washington, priority 2010, dated 2016).

“Also recorded” adds a separate entry of the source.

A word on the Ki: it is the dissociation constant of the complex between target and ligand, obtained from inhibition or displacement.

In assay [1] the target is T1, COI1-JAZ6 complex (Arabidopsis thaliana, UniProt O04197+Q9C9E3).
T1 construct: Full-length Arabidopsis thaliana COI1 and ASK1 were co-expressed; Full-length JAZ substrate proteins were expressed as 6×His-fusion proteins in Escherichia coli; GST (cleaved yes); 6xHis; made in house; host or cells: Hi5 insect cells (COI1/ASK1); Escherichia coli (JAZ6)
T1 sequence (O04197 1-592): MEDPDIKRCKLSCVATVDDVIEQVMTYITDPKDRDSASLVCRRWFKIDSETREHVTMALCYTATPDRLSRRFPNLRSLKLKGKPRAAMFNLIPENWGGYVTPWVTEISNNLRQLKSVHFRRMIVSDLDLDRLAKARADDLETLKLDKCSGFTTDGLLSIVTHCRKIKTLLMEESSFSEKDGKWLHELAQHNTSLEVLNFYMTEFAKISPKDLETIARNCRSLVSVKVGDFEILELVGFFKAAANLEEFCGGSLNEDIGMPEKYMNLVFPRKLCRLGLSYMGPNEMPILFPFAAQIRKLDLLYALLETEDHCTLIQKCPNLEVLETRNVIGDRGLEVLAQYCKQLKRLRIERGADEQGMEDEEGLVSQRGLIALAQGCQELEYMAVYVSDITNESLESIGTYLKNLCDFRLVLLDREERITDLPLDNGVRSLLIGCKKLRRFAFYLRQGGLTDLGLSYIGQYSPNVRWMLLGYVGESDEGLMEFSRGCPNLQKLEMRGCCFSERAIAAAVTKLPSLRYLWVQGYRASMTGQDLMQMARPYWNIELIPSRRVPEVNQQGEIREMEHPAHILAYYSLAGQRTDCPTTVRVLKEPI
T1 sequence (Q39255 1-160 partner): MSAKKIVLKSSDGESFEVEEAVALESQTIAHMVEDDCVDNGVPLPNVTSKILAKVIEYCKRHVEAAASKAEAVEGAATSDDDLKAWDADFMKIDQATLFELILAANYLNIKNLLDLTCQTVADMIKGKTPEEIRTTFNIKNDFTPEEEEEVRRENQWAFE
T1 sequence (Q9C9E3 1-269): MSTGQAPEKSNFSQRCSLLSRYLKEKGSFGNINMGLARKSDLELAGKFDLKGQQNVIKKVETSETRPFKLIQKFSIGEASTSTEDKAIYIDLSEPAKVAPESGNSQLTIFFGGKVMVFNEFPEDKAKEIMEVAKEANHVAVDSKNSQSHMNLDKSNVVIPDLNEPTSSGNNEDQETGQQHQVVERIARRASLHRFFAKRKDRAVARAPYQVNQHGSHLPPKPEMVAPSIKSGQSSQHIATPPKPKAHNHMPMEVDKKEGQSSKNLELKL
In words: Competition binding with 100 nM 3H-coronatine. To be noted: 100 nM 3H-COR, COI1-JAZ6 complex; read-out: Inhibition constant (Ki), competition with 3H-coronatine. An excerpt: (^3H)-labeled coronatine was synthesized by Amersham. Full-length Arabidopsis thaliana COI1 and ASK1 were co-expressed as a glutathione S-transferase (GST) fusion protein and an untagged protein, respectively, in Hi5 suspension insect cells. The COI1/ASK1 complex was isolated from the soluble cell lysate by glutathione affinity chromatography. After on-column tag cleavage by tobacco etch virus protease, the complex was further purified by anion exchange and gel filtration chromatography and concentrated by ultrafiltration to 12-18 mg ml^−1. Full-length JAZ substrate proteins were expressed as 6×His-fusion proteins in Escherichia coli and purified on Ni-NTA resin with subsequent dialysis into 20 mM Tris-HCl, pH 8.0, 200 mM NaCl, and 10% glycerol.
Radioligand binding was assayed on purified proteins, with 2 mg COI1/ASK1 complex and JAZ proteins at a 1:3 molar ratio. Reactions were prepared in […] final volume and in a binding buffer containing 20 mM Tris-HCl 200 mM NaCl, and 10% glycerol. Saturation binding experiments were conducted with serial dilutions of 3H-coronatine in binding buffer. Nonspecific binding was determined in the presence of […] coronatine. Competition binding experiments were conducted with serial dilutions of JA-Ile in the presence of 100 nM ^3H coronatine with nonspecific binding determined in the presence of […] coronatine. Total binding was determined in the presence of vehicle only. Two-point binding experiments were performed in the presence of 100 nM or 300 nM ^3H-coronatine with nonspecific binding determined in the presence of […] coronatine. Following incubation with mixing at 4° C., all samples were collected with a cell harvester (Brandel, Gaithersburg, Md.) on polyethyleneimine (Sigma)-treated filters. […] Saturation binding experiments were analyzed by nonlinear regression, competition binding experiments by nonlinear regression with Ki calculation as described previously (Cheng 1973), and concentration-response data by sigmoidal dose-response curve fitting, all using GraphPad Prism version 4.00 for MacOSX.

Assay [2] deals with T2, COI1/JAZ1 co-receptor (Arabidopsis thaliana, UniProt O04197+Q9LMA8).
T2 construct: Full-length Arabidopsis thaliana COI1 and ASK1 were co-expressed; Full-length JAZ substrate proteins were expressed as 6×His-fusion proteins in Escherichia coli; GST (cleaved yes); 6xHis; made in house; host or cells: Hi5 insect cells (COI1/ASK1); Escherichia coli (JAZ1)
T2 sequence (O04197 1-592): T1 sequence (O04197 1-592)
T2 sequence (Q39255 1-160 partner): T1 sequence (Q39255 1-160 partner)
T2 sequence (Q9LMA8 1-253): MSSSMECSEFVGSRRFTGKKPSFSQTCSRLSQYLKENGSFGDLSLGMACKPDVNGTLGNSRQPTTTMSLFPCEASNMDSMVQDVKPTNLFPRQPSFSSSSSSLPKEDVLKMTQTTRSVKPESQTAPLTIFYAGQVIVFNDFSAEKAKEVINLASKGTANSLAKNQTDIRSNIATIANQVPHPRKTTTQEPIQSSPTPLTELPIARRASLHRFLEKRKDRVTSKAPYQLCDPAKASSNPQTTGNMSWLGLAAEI
In words: Ligand-binding based reconstitution assay (inositol phosphate rescue) with dialyzed COI1/ASK1 and JAZ1. To be noted: for Effect of inositol phosphate on activity of the COI1/JAZ1 co-receptor (coronatine binding): dialyzed COI1, JAZ1, 1 μM inositol phosphate. Here is the method: (§1) Radioligand binding was assayed on purified proteins, with 2 mg COI1/ASK1 complex and JAZ proteins at a 1:3 molar ratio. Reactions were prepared in […] final volume and in a binding buffer containing 20 mM Tris-HCl 200 mM NaCl, and 10% glycerol. Saturation binding experiments were conducted with serial dilutions of 3H-coronatine in binding buffer. Nonspecific binding was determined in the presence of […] coronatine. Competition binding experiments were conducted with serial dilutions of JA-Ile in the presence of 100 nM ^3H coronatine with nonspecific binding determined in the presence of […] coronatine. Total binding was determined in the presence of vehicle only. Two-point binding experiments were performed in the presence of 100 nM or 300 nM ^3H-coronatine with nonspecific binding determined in the presence of […] coronatine. Following incubation with mixing at 4° C., all samples were collected with a cell harvester (Brandel, Gaithersburg, Md.) on polyethyleneimine (Sigma)-treated filters. Samples were incubated in liquid scintillation fluid for >1 hour before counting with a Packard Tri-Carb 2200 CA liquid scintillation analyzer (Packard Instrument Co.). Saturation binding experiments were analyzed by nonlinear regression, competition binding experiments by nonlinear regression with Ki calculation as described previously (Cheng 1973), and concentration-response data by sigmoidal dose-response curve fitting, all using GraphPad Prism version 4.00 for MacOSX.
To assess the functional role of Ins(1,2,4,5,6)P5 in the COI1/JAZ1 co-receptor, a protocol was developed for stripping the co-purified InsP5 from COI1 without denaturing the protein. Briefly, proteins were mixed with 10% glycerol and incubated in 2 M ammonium phosphate, 100 mM Bis-Tris propane, pH 7.0, 200 mM NaCl, and 10% glycerol at 4° C. for >24 hours with a minimum of 3× buffer changes at 100× sample volume. Samples were then transferred to 20 mM Tris-HCl, pH 8.0, 200 mM NaCl, and 10% glycerol at 4° C. for >24 hours with a minimum of three buffer changes at 100× sample volume. Inositol phosphate rescue experiments were conducted according to the radioligand binding assays described above in the presence of 300 nM ^3H-coronatine with nonspecific binding determined in the presence of 300 μM coronatine.
The resulting COI1/ASK1 complex was tested in a ligand-binding based reconstitution assay. […] From this reconstitution result, it was concluded that Ins(1,2,4,5,6)P5 binding is crucial for the jasmonate coreceptor to perceive the hormone with high sensitivity.

Assay [3] has as its target T2, COI1/JAZ1 co-receptor. Described as above. To be noted: 100 nM 3H-coronatine, read-out: EC50, rescue of 3H-coronatine binding to dialyzed COI1/ASK1 in the presence of JAZ1.
In assay [4] the target is T3, COI1 (Arabidopsis thaliana, UniProt O04197).
T3 construct: Full-length Arabidopsis thaliana COI1 and ASK1 were co-expressed; GST (cleaved yes); made in house; host or cells: Hi5 insect cells (COI1/ASK1); JAZ peptides synthetic
T3 sequence (O04197 1-592): T1 sequence (O04197 1-592)
T3 sequence (Q39255 1-160 partner): T1 sequence (Q39255 1-160 partner)
In words: Ligand binding assay with synthetic JAZ peptides replacing recombinant JAZ1 (coronatine binding to COI1/ASK1). The settings on record: 300 nM coronatine. How it is done:
as §1
Previous studies have shown that the highly conserved PY sequence at the C-terminal end of the Jas motif plays a role in JAZ localization and stability in vivo, but that the sequence was not necessary for ligand-dependent COI1-JAZ interaction. This was confirmed by an experiment showing that truncation of the PY motif in JAZ1 had little effect on in vitro ligand binding activity (FIG. 3). […]
Various derivatives of the JAZ1 degron sequence, as well as derivatives of the JAZ6 and JAZ7 degron sequences, were analyzed for their ability to bind COI1 with high affinity in the presence of coronatine.

As for `CCC=CC[C@H]1C(=O)CC[C@@H]1CC(=O)N[C@H](C(=O)O)[C@@H](C)CC` [(3R,7R)-JA-Ile], in assay [1], the Ki was 18 ± 19 µM. Same read-out and setting: then `CC/C=C\C[C@@H]1C(=O)CC[C@@H]1CC(=O)N[C@H](C(=O)O)[C@@H](C)CC` [(3R,7S)-JA-Ile, (3R,7S)-jasmonyl-L-isoleucine], with 1.8 ± 0.6 µM. As to `O=P(O)(O)OC1C(O)C(OP(=O)(O)O)C(OP(=O)(O)O)C(OP(=O)(O)O)C1OP(=O)(O)O` (stereo not drawn) [Ins(1,2,4,5,6)P5, inositol-1,2,4,5,6-pentakisphosphate], the “Effect of inositol phosphate on activity of the COI1/JAZ1 co-receptor (coronatine binding)” value in assay [2] was “rescued the interaction in a dose-dependent manner”; in assay [2] (listed as InsP5), “rescues binding”. In assay [2] (untreated (not dialyzed) COI1, JAZ1, 1 μM), the “Effect of exogenous inositol phosphate on untreated COI1/JAZ1 co-receptor activity” value is given as “did not significantly change its activity”. Also, the EC50 in assay [3] came to 0.027 µM.

Turning to `O=P(O)(O)OC1C(OP(=O)(O)O)C(OP(=O)(O)O)C(OP(=O)(O)O)C(OP(=O)(O)O)C1OP(=O)(O)O` (stereo not drawn) [InsP6, inositol hexakisphosphate], the “Effect of inositol phosphate on activity of the COI1/JAZ1 co-receptor (coronatine binding)” value in assay [2] is recorded as “not favorable for activity; also recorded: significantly less efficacious”. Same read-out and setting: then `O=P(O)(O)O[C@H]1[C@H](OP(=O)(O)O)[C@@H](OP(=O)(O)O)[C@@H](O)[C@@H](O)[C@@H]1OP(=O)(O)O` [inositol-1,4,5,6-tetrakisphosphate], with “supports the activity”; and `O=P(O)(O)O[C@@H]1[C@H](O)[C@H](O)[C@@H](OP(=O)(O)O)[C@H](OP(=O)(O)O)[C@H]1O` [inositol-1,4,5-trisphosphate], with “does not”. For “JAZ1 +4 extension: LPIARRASLHRFLEKRKDRV (listed as Arabidopsis thaliana)”, in assay [4], the “Binding of peptide to COI1 in the presence of coronatine” value (shortened to “Binding of peptide to COI1”) is “much higher affinity”. Turning to “JAZ1 degron: RRASLHRFLEKRKDRVTSKAPY (R205-Y226 of JAZ1) (listed as Arabidopsis thaliana)”, the “Binding of peptide to COI1” value in assay [4] was “did not bind to COI1 with high affinity”. As to “JAZ1-extension +5+PY: ELPIARRASLHRFLEKRKDRVTSKAPY (listed as Arabidopsis thaliana)”, in assay [4], the “Binding of peptide to COI1” value is recorded as “significant binding”.
